Test results: patent US8778919B2, “Cyclic anilino—pyridinotriazines” (Janssen Pharmaceutica NV, priority 2005, dated 2014)

Experiments:
Format in all cases: biochemical
CDK2/cyclinE (h) = CDK2/cyclinE (h) (Homo sapiens, UniProt P24941); assay: Kinase profiling C3.4 CDK2/cyclinE human; settings: test concentration of 10^−6 M
Summary of the method: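 Radiometric filter-binding assay: 5-10 mU enzyme with 0.1 mg/ml histone H1 in 8 mM MOPS pH 7.0, 0.2 mM EDTA, 10 mM Mg acetate and [γ-33P]ATP. Incubated 40 min at room temperature, stopped with phosphoric acid. Substrate-bound 33P counted on P30 filtermat.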

CDK1/cyclinB (h) = CDK1/cyclinB (h) (Homo sapiens, UniProt P06493); assay: Kinase profiling C3.2 CDK1/cyclinB human; settings: test concentration of 10^−6 M
Summary of the method: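 Radiometric filter-binding assay: human CDK1/cyclinB (5-10 mU) with 0.1 mg/ml histone H1 substrate and [γ-33P]ATP in 8 mM MOPS pH 7.0, 10 mM Mg acetate, 40 min at room temperature. Stopped with phosphoric acid; substrate-bound 33P counted on P30 filtermat by scintillation.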

CDK2/cyclinA (h) = CDK2/cyclinA (h) (Homo sapiens, UniProt P24941); assay: Kinase profiling C3.3 CDK2/cyclinA human; settings: test concentration of 10^−6 M
Summary of the method: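 Human CDK2/cyclinA (5-10 mU) phosphorylates 0.1 mg/ml histone H1 in 8 mM MOPS pH 7.0, EDTA, 10 mM Mg acetate with [γ-33P]ATP, 40 min at room temperature. After phosphoric acid stop, filter-bound 33P counted by scintillation.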

CDK3/cyclinE (h) = CDK3/cyclinE (h) (Homo sapiens, UniProt Q00526); assay: Kinase profiling C3.5 CDK3/cyclinE human; settings: test concentration of 10^−6 M
Summary of the method: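 Human CDK3/cyclinE (5-10 mU) phosphorylated 0.1 mg/ml histone H1 in 8 mM MOPS pH 7.0, 0.2 mM EDTA and 10 mM MgAcetate with [γ-33P]ATP. Reaction ran 40 min at room temperature and was stopped with phosphoric acid. Substrate-bound radioactivity was captured on P30 filtermat and measured by scintillation counting.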

CDK5/p35 human = CDK5/p35 human (Homo sapiens, UniProt Q00535); assay: Kinase profiling C3.6 CDK5/p35 human; settings: CDK5/p35, test concentration of 10^−6 M
Summary of the method: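 Radiometric filter-binding assay: human CDK5/p35 (5-10 mU) with 0.1 mg/ml histone H1 substrate in 8 mM MOPS pH 7.0, 0.2 mM EDTA, 10 mM Mg acetate and [γ-33P]ATP. Incubated 40 min at room temperature, stopped with phosphoric acid. Substrate 33P incorporation counted on P30 filtermat by scintillation.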

GSK-3α = GSK-3α (Homo sapiens, UniProt P49840); assay: GSK-3 kinase assay (C1), GSK-3α; settings: 1 μM ATP; for IC50: read-out: C1 Score α
Summary of the method: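 Radiometric SPA at room temperature in 25 mM Tris pH 7.4 with 10 mM MgCl2, 1 mM DTT, 5.7 ng/μl GSK-3β or 0.25 ng/μl GSK-3α, 5 μM biotinylated CREB peptide and 1 μM ATP plus ^33P-ATP. Stopped after 1 h; IC50 from dose-response versus no-compound control, reported as pIC50 score bands.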

Chain of CDK1/cyclinB (h) (P06493 whole entry): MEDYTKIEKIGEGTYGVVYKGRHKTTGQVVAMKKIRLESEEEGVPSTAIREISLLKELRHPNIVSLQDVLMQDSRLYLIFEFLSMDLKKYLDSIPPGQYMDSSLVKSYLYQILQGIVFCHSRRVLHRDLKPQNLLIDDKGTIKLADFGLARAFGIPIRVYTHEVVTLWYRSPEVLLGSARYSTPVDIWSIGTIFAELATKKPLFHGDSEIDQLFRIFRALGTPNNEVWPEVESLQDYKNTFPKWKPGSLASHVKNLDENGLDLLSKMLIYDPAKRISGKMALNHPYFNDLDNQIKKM
Chain of CDK1/cyclinB (h) (P14635 whole entry partner): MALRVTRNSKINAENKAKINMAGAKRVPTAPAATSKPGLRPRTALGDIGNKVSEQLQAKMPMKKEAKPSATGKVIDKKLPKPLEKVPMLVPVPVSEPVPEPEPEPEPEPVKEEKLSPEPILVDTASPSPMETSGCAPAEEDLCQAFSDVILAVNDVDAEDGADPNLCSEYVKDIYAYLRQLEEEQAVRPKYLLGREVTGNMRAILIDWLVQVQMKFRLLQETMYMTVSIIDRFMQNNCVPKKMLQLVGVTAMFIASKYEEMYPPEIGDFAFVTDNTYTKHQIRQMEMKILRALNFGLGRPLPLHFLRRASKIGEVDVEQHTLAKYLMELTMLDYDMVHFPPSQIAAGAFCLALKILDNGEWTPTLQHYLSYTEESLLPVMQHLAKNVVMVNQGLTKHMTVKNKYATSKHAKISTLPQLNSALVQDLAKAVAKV
Chain of CDK5/p35 human (Q00535 whole entry): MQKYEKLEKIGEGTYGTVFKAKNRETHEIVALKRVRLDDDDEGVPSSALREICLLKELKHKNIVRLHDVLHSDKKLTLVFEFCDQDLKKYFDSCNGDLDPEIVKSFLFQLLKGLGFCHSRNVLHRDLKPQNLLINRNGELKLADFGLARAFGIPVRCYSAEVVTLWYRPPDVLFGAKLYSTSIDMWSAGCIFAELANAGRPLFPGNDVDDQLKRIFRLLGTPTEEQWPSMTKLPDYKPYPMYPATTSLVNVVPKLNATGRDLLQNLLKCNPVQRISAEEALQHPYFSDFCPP
Chain of CDK5/p35 human (Q15078 whole entry partner): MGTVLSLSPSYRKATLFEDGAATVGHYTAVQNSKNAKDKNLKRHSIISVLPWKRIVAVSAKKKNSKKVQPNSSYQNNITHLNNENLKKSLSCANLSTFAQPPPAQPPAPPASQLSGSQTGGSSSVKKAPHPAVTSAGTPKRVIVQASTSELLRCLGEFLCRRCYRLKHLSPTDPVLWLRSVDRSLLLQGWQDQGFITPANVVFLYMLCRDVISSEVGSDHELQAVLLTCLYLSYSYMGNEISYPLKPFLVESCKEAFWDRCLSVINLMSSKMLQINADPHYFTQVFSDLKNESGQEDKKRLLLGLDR
Chain of GSK-3α (P49840 whole entry, species assumed): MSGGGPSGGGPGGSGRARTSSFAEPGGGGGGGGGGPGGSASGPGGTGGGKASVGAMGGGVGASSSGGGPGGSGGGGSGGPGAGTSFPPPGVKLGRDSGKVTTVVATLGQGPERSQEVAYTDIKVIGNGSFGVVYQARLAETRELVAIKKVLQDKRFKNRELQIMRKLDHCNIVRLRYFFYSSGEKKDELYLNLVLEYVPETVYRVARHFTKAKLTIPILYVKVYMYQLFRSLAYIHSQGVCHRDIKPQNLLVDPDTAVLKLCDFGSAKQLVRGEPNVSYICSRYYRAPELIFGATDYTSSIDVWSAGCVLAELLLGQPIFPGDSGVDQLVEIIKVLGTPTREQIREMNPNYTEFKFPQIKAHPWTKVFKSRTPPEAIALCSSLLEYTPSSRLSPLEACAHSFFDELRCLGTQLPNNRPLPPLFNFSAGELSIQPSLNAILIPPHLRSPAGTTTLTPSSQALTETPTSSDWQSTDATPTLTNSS

| SMILES | C3.4 score (CDK2/cyclinE (h)) | C3.2 score (CDK1/cyclinB (h)) | C3.3 score (CDK2/cyclinA (h)) | C3.5 score (CDK3/cyclinE (h)) | C3.6 score (CDK5/p35 human) | IC50 (GSK-3α) [nM] | C1 Score α (GSK-3α) |
| --- | --- | --- | --- | --- | --- | --- | --- |
| CN1CC(=O)NCC#Cc2cc(ccn2)-c2ncnc(n2)Nc2cccc(c2)C1 [Compound 1] | 4 (Score 4 = >80% inhibition) | 4 (Score 4 = >80% inhibition) | 4 (Score 4 = >80% inhibition) | 4 (Score 4 = >80% inhibition) | 4 (Score 4 = >80% inhibition) | < 10 |  |
| CN1CC(=O)NC/C(Cl)=C/c2cc(ccn2)-c2ncnc(n2)Nc2cccc(c2)C1 [Compound 2] | 4 (Score 4 = >80% inhibition) | 4 (Score 4 = >80% inhibition) | 4 (Score 4 = >80% inhibition) | 4 (Score 4 = >80% inhibition) | 4 (Score 4 = >80% inhibition) | < 10 |  |
| CN1CCC(=O)NCCCc2cc(ccn2)-c2ncnc(n2)Nc2cccc(c2)C1 [Compound 3] | 4 (Score 4 = >80% inhibition) | 4 (Score 4 = >80% inhibition) | 4 (Score 4 = >80% inhibition) | 3 (Score 3 = 60-80% inhibition) | 3 (Score 3 = 60-80% inhibition) | 100 to 1000 |  |
| CN1CCCc2cc(ccn2)-c2ncnc(n2)Nc2cccc(c2)CNC(=O)C1 [Compound 7] | 4 (Score 4 = >80% inhibition) | 4 (Score 4 = >80% inhibition) | 4 (Score 4 = >80% inhibition) | 4 (Score 4 = >80% inhibition) | 4 (Score 4 = >80% inhibition) | < 10 |  |
| CN1CC(=O)NCCCc2cc(ccn2)-c2ncnc(n2)Nc2cccc(c2)C1 [Compound 8] | 4 (Score 4 = >80% inhibition) | 4 (Score 4 = >80% inhibition) | 4 (Score 4 = >80% inhibition) | 4 (Score 4 = >80% inhibition) | 3 (Score 3 = 60-80% inhibition) |  | 4 (Score 4=pIC50 value>8) |
| O=C1CN2CCN(CC2)Cc2cccc(c2)Nc2ncnc(n2)-c2ccnc(c2)CCCN1 [Compound 9] | 4 (Score 4 = >80% inhibition) | 4 (Score 4 = >80% inhibition) | 4 (Score 4 = >80% inhibition) | 3 (Score 3 = 60-80% inhibition) | 2 (Score 2 = 30-60% inhibition) |  | 4 (Score 4=pIC50 value>8) |
| CN1CC(=O)NCCCc2cc(ccn2)-c2ncnc(n2)Nc2cccc(c2)C1 [Compound 10] | 4 (Score 4 = >80% inhibition) | 4 (Score 4 = >80% inhibition) | 4 (Score 4 = >80% inhibition) | 4 (Score 4 = >80% inhibition) | 4 (Score 4 = >80% inhibition) | < 10 |  |
| CN1CCN(CCN2CCC(=O)NCCCc3cc(ccn3)-c3ncnc(n3)Nc3cccc(c3)C2)CC1 [Compound 11] | 1 (Score 1 = 10-30% inhibition) | 1 (Score 1 = 10-30% inhibition) | 1 (Score 1 = 10-30% inhibition) | 1 (Score 1 = 10-30% inhibition) | 1 (Score 1 = 10-30% inhibition) | 100 to 1000 |  |
| O=C1NCCCc2cc(ccn2)-c2ncnc(n2)Nc2cccc(c2)CN2CCCC12 (stereo not drawn) [Compound 12] | 4 (Score 4 = >80% inhibition) | 3 (Score 3 = 60-80% inhibition) | 4 (Score 4 = >80% inhibition) | 3 (Score 3 = 60-80% inhibition) | 2 (Score 2 = 30-60% inhibition) | 100 to 1000 |  |
| CN1CCCC(=O)NCCCc2cc(ccn2)-c2ncnc(n2)Nc2cccc(c2)C1 [Compound 13] | 2 (Score 2 = 30-60% inhibition) | 1 (Score 1 = 10-30% inhibition) | 2 (Score 2 = 30-60% inhibition) | 2 (Score 2 = 30-60% inhibition) | 1 (Score 1 = 10-30% inhibition) | 100 to 1000 |  |
| O=C1NCCCc2cc(ccn2)-c2ncnc(n2)Nc2cccc(c2)CN2C[C@H](O)C[C@@H]12 [Compound 14] | 1 (Score 1 = 10-30% inhibition) | 2 (Score 2 = 30-60% inhibition) | 4 (Score 4 = >80% inhibition) | 2 (Score 2 = 30-60% inhibition) | 1 (Score 1 = 10-30% inhibition) | 10 to 100 |  |
| O=C1NCCCc2cc(ccn2)-c2ncnc(n2)Nc2cccc(c2)CN2CCCC1C2 (stereo not drawn) [Compound 15] | 2 (Score 2 = 30-60% inhibition) | 1 (Score 1 = 10-30% inhibition) | 2 (Score 2 = 30-60% inhibition) | 1 (Score 1 = 10-30% inhibition) | 1 (Score 1 = 10-30% inhibition) | 10 to 100 |  |
| CCN1CCCc2cc(ccn2)-c2ncnc(n2)Nc2cccc(c2)CCNC(=O)C1 [Compound 30] | 4 (Score 4 = >80% inhibition) | 4 (Score 4 = >80% inhibition) | 4 (Score 4 = >80% inhibition) | 4 (Score 4 = >80% inhibition) | 4 (Score 4 = >80% inhibition) | < 10 |  |
| CN1CC(=O)NCCCc2cc(ccn2)-c2ncnc(n2)Nc2cc(Cl)cc(c2)C1 [Compound 33] | 4 (Score 4 = >80% inhibition) | 4 (Score 4 = >80% inhibition) | 4 (Score 4 = >80% inhibition) | 4 (Score 4 = >80% inhibition) | 4 (Score 4 = >80% inhibition) | < 10 |  |
| CCN1CC(=O)NCCCc2cc(ccn2)-c2ncnc(n2)Nc2cc(Cl)cc(c2)C1 [Compound 34] | 4 (Score 4 = >80% inhibition) | 4 (Score 4 = >80% inhibition) | 4 (Score 4 = >80% inhibition) | 4 (Score 4 = >80% inhibition) | 4 (Score 4 = >80% inhibition) | < 10 |  |
| O=C1CCN2CCN(CC2)Cc2cccc(c2)Nc2ncnc(n2)-c2ccnc(c2)CCCN1 [Compound 35] | 4 (Score 4 = >80% inhibition) | 4 (Score 4 = >80% inhibition) | 4 (Score 4 = >80% inhibition) | 4 (Score 4 = >80% inhibition) | 4 (Score 4 = >80% inhibition) | 10 to 100 |  |
| O=C1CN2CCN(CC2)Cc2cccc(c2)Nc2ncnc(n2)-c2ccnc(c2)CCCN1 [Compound 36] | 4 (Score 4 = >80% inhibition) | 4 (Score 4 = >80% inhibition) | 4 (Score 4 = >80% inhibition) | 3 (Score 3 = 60-80% inhibition) | 3 (Score 3 = 60-80% inhibition) | < 10 |  |
| O=C1CN2CCN(CC2)Cc2cc(Cl)cc(c2)Nc2ncnc(n2)-c2ccnc(c2)CCCN1 [Compound 41] | 4 (Score 4 = >80% inhibition) | 4 (Score 4 = >80% inhibition) | 4 (Score 4 = >80% inhibition) | 3 (Score 3 = 60-80% inhibition) | 3 (Score 3 = 60-80% inhibition) | < 10 |  |
| O=C1NCCCc2cccc(c2)-c2ncnc(n2)Nc2cccc(c2)CN[C@H]1CO [Compound 46] | 4 (Score 4 = >80% inhibition) | 4 (Score 4 = >80% inhibition) | 4 (Score 4 = >80% inhibition) | 4 (Score 4 = >80% inhibition) | 4 (Score 4 = >80% inhibition) | < 10 |  |
| CCN1CC(=O)NCCCc2cccc(c2)-c2ncnc(n2)Nc2cccc(c2)C1 [Compound 54] | 4 (Score 4 = >80% inhibition) | 3 (Score 3 = 60-80% inhibition) | 4 (Score 4 = >80% inhibition) | 2 (Score 2 = 30-60% inhibition) | 3 (Score 3 = 60-80% inhibition) | < 10 |  |
| O=C1CN2CCN(CC2)Cc2cccc(c2)Nc2ncnc(n2)-c2ccc(F)c(c2)CCCN1 [Compound 66] | 4 (Score 4 = >80% inhibition) | 4 (Score 4 = >80% inhibition) | 3 (Score 3 = 60-80% inhibition) | 3 (Score 3 = 60-80% inhibition) | 3 (Score 3 = 60-80% inhibition) | < 10 |  |
